These results are taken from the OPERA property sets (Mansouri et al. 2018).

As usually defined, the logP is a log measure of how a compound divides between an organic and an aqueous phase. Read a high logP as higher lipophilicity.

`O=C(Nc1ccc(Cl)cc1)c1cc(Cl)cc(Cl)c1O` gave a lipophilicity (logP) of 5.15.
To `O=C(Nc1ccc(Cl)cc1Cl)c1ccccc1O` belongs 5.49.
To `O=C(Nc1ccc(Br)cc1)c1ccccc1O` belongs 4.51; to `O=C(Nc1ccc(Cl)cc1[N+](=O)[O-])c1ccccc1O`, 4.09; to `O=C(Nc1ccc(Cl)cc1)c1ccccc1O`, 4.5.
To `O=C(Nc1ccccc1Cl)c1ccccc1O` belongs 4.35.
Turning to `O=C(Nc1ccc(F)cc1F)c1cc(Cl)cc(Cl)c1O`, the logP amounted to 4.55.
To `Cc1cc(Cl)ccc1NC(=O)c1ccccc1O` belongs 5.18; to `O=C(Nc1ccc(F)cc1)c1cc(Cl)cc(Cl)c1O`, 4.76; to `Cc1cc(Br)ccc1NC(=O)c1cc(F)ccc1O`, 5.15.
To `Cc1cc([N+](=O)[O-])ccc1NC(=O)c1cc(Cl)cc(Cl)c1O` belongs 4.51.
In the case of `Cc1ccccc1NC(=O)c1cc(Cl)ccc1O`, the log partition coefficient (logP) stood at 4.21.
Then `O=C(Nc1ccc(Cl)cc1)c1cc(Br)ccc1O`, with 5.02.
To `O=C(Nc1ccc(Cl)cc1[N+](=O)[O-])c1cc(Br)cc(Br)c1O` belongs 5.05; to `O=C(Nc1ccc(F)cc1F)c1cc(Br)cc(Br)c1O`, 4.99; to `O=C(Nc1ccc(Cl)cc1[N+](=O)[O-])c1cc(Cl)cc(Cl)c1O`, 5.08.
Consider `O=C(Nc1ccccc1)c1cc([N+](=O)[O-])ccc1O`, for which the logP was determined as 3.66.
Then `O=C(Nc1ccccc1)c1cc(Cl)ccc1O`, with 4.05; and `O=C(Nc1ccccc1[N+](=O)[O-])c1ccccc1O`, with 2.87; and `Cc1cc(Cl)ccc1NC(=O)c1cc(F)ccc1O`, with 4.89.
For the compound `O=C(Nc1ccccc1)c1cc(Cl)cc(Cl)c1O`, the logP is 4.01.
